{
  "source": "patent US20250281465A1",
  "about": "“MOLECULES THAT ENHANCE EXTRACELLULAR VESICLE RELEASE” (priority 2022, published 2025)",
  "test_system": "C57BL/6 mice",
  "experiment": "In vivo adjuvanticity with ovalbumin as model antigen",
  "set-up": "species or system mouse",
  "settings": "OVA 20 μg + compound 200 nmol i.m. days 0 and 21, day 28",
  "method": "FIGS. 1A-1D. Intracellular Ca^2+ influx screening of 84 HTS hit candidate compounds. (A) THP-1 cells were loaded with the ratiometric Ca^2+ indicator, Fura-2, and treated with lonomycin (ION, 1 μM), Thapsigargin (1 μM), or 84 hit candidate compounds (10 μM) for 25 minutes. Data are presented as the area under the curve (AUG) of OD340/380 ratios corresponding to the intracellular Ca^2+ kinetics. The baseline-subtracted AUG was calculated using GraphPad Prism (GraphPad Software, San Diego, CA). (B) Ca^2+ mobilization by compound #634. mBMDCs were loaded with the ratiometric Ca^2+ indicator, Fura-8, and treated with ION (1 μM), or #634 (2 and 10 μM) for 25 minutes. The dashed line indicates the timing of compounds added. […] OVA-specific IgGI and IgG2c levels in sera were determined by ELISA. **p<0.01, ***p<0.001, ns (not significant) by KruskalWallis tests with Dunn's post hoc test vs. Veh. […]\nEighty-four hit candidate compounds were also screened for in vivo adjuvant activities using C57BL/6 mice and model antigen ovalbumin (OVA). […] Sera were collected on day 28, and OVA-specific immunoglobulins IgG1 and IgG2c were determined by ELISA (FIG. 1D).\nThe selected 80 compounds were first evaluated for purity and identity by HPLC-MS and compounds which were less than 90% pure were purified by Prep-HPLC. These were then evaluated for vaccine adjuvant activity in mice using a model antigen, ovalbumin (OVA). […]",
  "data": [
    {"smiles": "CCOC(=O)c1c(NS(=O)(=O)c2cccc3c2N=S=N3)sc(C)c1C", "note": "[#634, ethyl 2-(benzo[c][1,2,5]thiadiazole-4-sulfonamido)-4,5-dimethylthiophene-3-carboxylate]", "values": [
      {"measurement": "Anti-OVA IgG1 level in sera", "value": "appeared to be higher than the levels from animals immunized without adjuvant, although there were no significant differences"},
      {"measurement": "Anti-OVA IgG2c level in sera", "value": "appeared to be higher than the levels from animals immunized without adjuvant, although there were no significant differences"}
    ]}
  ]
}
